System: A549 cells
Test: Examination of the apoptotic caspase activation (Western Blot, PARP cleaving)
Format: cell-based
Settings: 48 hours, extract 25 and 50 μg/ml, staurosporine as positive control stimulus
Protocol: To examine the apoptotic caspase activation, A549 cells were treated with 25 and 50 μg/ml of the extract for 48 hours. The cells were then lysed, and the cellular proteins were separated using gel electrophoresis and examined in the Western Blot with an antiPARP antibody (Poly(ADP-Ribose) polymerase, caspase substrate) for the apoptotic cleaving of this protein by caspases. The apoptosis-inductor staurosporine served as the positive control stimulus. The experiments were conducted in two parallel batches.

CN[C@@H]1C[C@H]2O[C@@](C)([C@@H]1OC)n1c3ccccc3c3c4c(c5c6ccccc6n2c5c31)C(=O)NC4 [staurosporine]
caspase activation / apoptotic cleaving of PARP: efficient cleaving of the caspase substrate
